Patent US9670223B2, “Compounds with super-aspirin effects” (SOLVOTRIN THERAPEUTICS LTD., priority 2011, dated 2017)
“Also recorded” adds a separate entry of the source.

Tests used:
[1] = system: platelet rich plasma (PRP); experiment: U46619-induced platelet aggregation in PRP; type: cell-based, human
Description: Platelet aggregation was measured by light aggregometry. […] Aggregation was initiated by the addition of agonists, and monitored by Aggro-Link software for at least 6 min.

[2] = GI tolerability testing: gastric ulcerogenic effect in rats; type: in vivo; settings: rat, aspirin 30 mg/Kg daily or molar equivalent doses, oral gavage, 3 days
Description: In this study, rats are fed Aspirin 30 mg/Kg daily or molar equivalent doses of ISAS, ISANA (“Nicotinate”), ISANO “Meta” nitrate or ISAMNA in oral gavage daily for 3 days (n=3 per group). At the end of the dosing period, all animals were sacrificed, stomachs removed and were immersed in 2% formalin for at least 10 min to fix the gastric tissue wall, and will opened along the greater curvature for scoring for irritation or hemorrhagic lesions or ulcers developed in the corpus mucosa under a dissecting microscope on a 5-point scale. The percentage of stomach surface area showing ulcers was recorded for each animal and expressed as a percentage.

59M cells = experiment: Flow-mediated TCIPA using an ultrasound standing wave trap; type: cell-based, human; settings: 500 μM, 59M cell cluster
Source text: The ultrasound trap had three essential features: a transducer (Ferroperm, Kvistgard, Denmark) in a housing of radial symmetry, an aqueous phase and a reflector that provided optical access from above. The trap was driven with a function generator (Hewlett Packard 33120A, UK). Microscopic observation occurred with a fast, high-resolution XM10 camera (Soft Imaging System, SIS, GmbH) mounted on an Olympus BX51M reflection epi-fluorescence microscope. Images were captured by a standard PC equipped with the Cell-D image acquisition software (Soft Imaging System, SIS, GmbH).
The experimental procedure was as follows: 59M cells were introduced into the trap, the acoustic field (2.13 MHz, 0.85 MPa) was initiated and cell clusters were allowed to form. Clusters remained levitated in suspension for 10 min. Washed platelets (2.5×10^8/ml) were introduced into the trap at a flow rate of 3 μl/min. Perfusion of washed platelets around the cluster proceeded following initial adhesion of platelets to the periphery of the cluster.
To study the effect of aspirin and aspirin prodrugs in TCIPA, washed platelets were pre-incubated for 10 min at room temperature with the inhibitors: aspirin, nicotinate, ISAS, ISMNA, ortho and meta (all at a concentration of 500 μM), prior to their introduction into the ultrasound trap. […] The cell cluster-platelet aggregate remained under microscopic observation for further 10 min (the upper time limit established in the current study) under continuous flow conditions. Further experiments were performed with ST0702 salicylate (500 μM).

| SMILES | inhibitory effect on platelet aggregation induced by U46619 [1] | gastric ulcerogenic effect [2] | inhibition of TCIPA under flow conditions (platelet-tumour cell disruption) (59M cells) |
| --- | --- | --- | --- |
| CC(=O)Oc1ccccc1C(=O)O [Aspirin] | Neither aspirin nor the aspirin prodrugs had any inhibitory effect | significant gastric ulcerogenic effect |  |
| CC(=O)Oc1ccccc1C(=O)O[C@H]1CO[C@H]2[C@@H]1OC[C@H]2OC(=O)c1cccnc1 [ST0702, isosorbide-2-aspirinate-5-nicotinate] |  |  | significantly arrested TCIPA; also recorded: effectively inhibit |
